Assay results: patent publication US20150306086A1, “MODULATING CERTAIN TYROSINE KINASES” (Tesaro, Inc., priority 2011, published 2015)
Where two headings read alike, the source gives them in different places. Blank lines part the entries; values can stand above or below the compound they belong to.

Tests used:
[1] = target: T1, cytoplasmic domain (amino acids 1058-1620) of wild-type human ALK (Homo sapiens, UniProt Q9UM73); assay: ALK inhibition in enzyme assay (Lance TR-FRET); type: biochemical
T1 construct: cytoplasmic domain (amino acids 1058-1620) of wild-type human ALK; GST (N); made in house; host or cells: SF9 cells

TRKC = TRKC (Homo sapiens, UniProt Q16288); assay: Off-chip mobility shift kinase assay, TRKC; type: biochemical; conditions: Srctide 1000 nM, ATP 50 μM, Mg 5 mM
RET(Y791F) = RET(Y791F) (Homo sapiens, UniProt P07949, Y791F); assay: Off-chip mobility shift kinase assay, RET [Y791F]; type: biochemical; conditions: CSKtide 1000 nM, ATP 25 μM, Mg 5 mM
RET(M918T) = RET(M918T) (Homo sapiens, UniProt P07949, M918T); assay: Off-chip mobility shift kinase assay, RET [M918T]; type: biochemical; conditions: CSKtide 1000 nM, ATP 5 μM, Mg 5 mM
TRKA = TRKA (Homo sapiens, UniProt P04629); assay: Off-chip mobility shift kinase assay, TRKA; type: biochemical; conditions: CSKtide 1000 nM, ATP 75 μM, Mg 5 mM
FLT3 = target: T2, FLT3 (Homo sapiens, UniProt P36888); assay: Off-chip mobility shift kinase assay, FLT3; type: biochemical; conditions: Srctide 1000 nM, ATP 100 μM, Mg 5 mM
T2 sequence (P36888 27-993): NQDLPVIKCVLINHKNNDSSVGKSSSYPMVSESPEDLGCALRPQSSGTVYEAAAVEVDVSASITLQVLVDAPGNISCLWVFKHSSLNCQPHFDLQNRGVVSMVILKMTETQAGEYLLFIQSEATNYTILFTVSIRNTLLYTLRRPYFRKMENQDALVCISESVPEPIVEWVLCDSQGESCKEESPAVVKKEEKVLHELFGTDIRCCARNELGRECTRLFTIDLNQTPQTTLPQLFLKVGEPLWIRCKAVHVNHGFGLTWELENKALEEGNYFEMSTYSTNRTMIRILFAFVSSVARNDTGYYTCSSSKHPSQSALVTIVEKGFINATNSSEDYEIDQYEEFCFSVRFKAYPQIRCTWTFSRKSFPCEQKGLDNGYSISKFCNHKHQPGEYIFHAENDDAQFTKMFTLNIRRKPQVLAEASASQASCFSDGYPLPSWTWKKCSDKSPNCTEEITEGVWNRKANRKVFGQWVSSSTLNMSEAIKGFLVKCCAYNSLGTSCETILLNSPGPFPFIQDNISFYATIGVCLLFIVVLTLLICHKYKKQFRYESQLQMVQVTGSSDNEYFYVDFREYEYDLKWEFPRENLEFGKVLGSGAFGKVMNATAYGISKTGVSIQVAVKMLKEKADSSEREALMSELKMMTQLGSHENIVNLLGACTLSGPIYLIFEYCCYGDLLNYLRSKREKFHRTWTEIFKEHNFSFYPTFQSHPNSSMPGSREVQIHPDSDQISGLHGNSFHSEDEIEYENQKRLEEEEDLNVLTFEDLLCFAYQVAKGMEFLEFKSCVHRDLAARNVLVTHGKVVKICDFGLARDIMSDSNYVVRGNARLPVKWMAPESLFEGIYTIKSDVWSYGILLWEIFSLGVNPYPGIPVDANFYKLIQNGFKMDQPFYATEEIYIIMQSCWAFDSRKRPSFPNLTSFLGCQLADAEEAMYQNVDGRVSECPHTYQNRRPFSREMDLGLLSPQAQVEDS

RET(G691S) = RET(G691S) (Homo sapiens, UniProt P07949, G691S); assay: Off-chip mobility shift kinase assay, RET [G691S]; type: biochemical; conditions: CSKtide 1000 nM, ATP 10 μM, Mg 5 mM
RET(S 891A) = RET(S 891A) (Homo sapiens, UniProt P07949, S891A); assay: Off-chip mobility shift kinase assay, RET [S891A]; type: biochemical; conditions: CSKtide 1000 nM, ATP 10 μM, Mg 5 mM
TRKB = TRKB (Homo sapiens, UniProt Q16620); assay: Off-chip mobility shift kinase assay, TRKB; type: biochemical; conditions: Srctide 1000 nM, ATP 75 μM, Mg 5 mM
FLT4 = FLT4 (Homo sapiens, UniProt P35916); assay: Off-chip mobility shift kinase assay, FLT4; type: biochemical; conditions: CSKtide 1000 nM, ATP 75 μM, Mg 5 mM
RET = RET (Homo sapiens, UniProt P07949); assay: Off-chip mobility shift kinase assay, RET; type: biochemical; conditions: CSKtide 1000 nM, ATP 10 μM, Mg 5 mM
FLT1 = FLT1 (Homo sapiens, UniProt P17948); assay: Off-chip mobility shift kinase assay, FLT1; type: biochemical; conditions: CSKtide 1000 nM, ATP 150 μM, Mg 5 mM, reaction time 5 hours
KDR = KDR (Homo sapiens, UniProt P35968); assay: Off-chip mobility shift kinase assay, KDR; type: biochemical; conditions: CSKtide 1000 nM, ATP 75 μM, Mg 5 mM
FAK = FAK (Homo sapiens, UniProt Q05397); assay: Off-chip mobility shift kinase assay, FAK; type: biochemical; conditions: Blk/Lyntide 1000 nM, ATP 25 μM, Mg 5 mM
EGFR(T790M) = EGFR(T790M) (Homo sapiens, UniProt P00533, T790M); assay: Off-chip mobility shift kinase assay, EGFR [T790M]; type: biochemical; conditions: Srctide 1000 nM, ATP 1 μM, Mg + Mn 5 + 1 mM
NGF = target: T3, NGF (Homo sapiens, UniProt P01138); conditions: osteoarthritis pain study, cited from earlier work
T3 construct: host or cells: patients (endogenous NGF)

Compound: CC(C)NC(=O)[C@H]1CC[C@@H](n2/c(=N/C(=O)c3cc(F)cc(F)c3)[nH]c3ccc(CN4CCC(C(C)(C)O)CC4)cc32)CC1 [I-b]
- IC50 (TRKC): 1 to 100 nM
- IC50 (RET(Y791F)): > 1000 nM
- IC50 (RET(M918T)): > 1000 nM
- IC50 (TRKA): 1 to 100 nM
- IC50 (FLT3): 1 to 100 nM
- IC50 (RET(G691S)): > 1000 nM
- IC50 (RET(S 891A)): 101 to 500 nM
- IC50 (TRKB): 1 to 100 nM
- IC50 (FLT4): > 1000 nM
- IC50 (RET): > 1000 nM
- IC50 (FLT1): > 1000 nM
- IC50 (KDR): > 1000 nM
- IC50 (FAK): 101 to 500 nM
- IC50 (EGFR(T790M)): > 1000 nM

Compound: CC(C)NC(=O)[C@H]1CC[C@@H](n2/c(=N/Cc3ccc4ccsc4c3)[nH]c3cnc(OCCN4CCCCC4)cc32)CC1 [Example 87]
- IC50 [1]: 50 to 100 nM

Compound: CC(C)NC(=O)[C@H]1CC[C@@H](n2/c(=N/C(=O)c3ccc(F)cc3)[nH]c3ccc(CN4CCN(S(=O)(=O)O)CC4)cc32)CC1 [Example 172]
- IC50 [1]: < 50 nM

Compound: CCOC(=O)[C@H]1CC[C@@H](n2/c(=N/C(=O)c3cccc(F)c3)[nH]c3cnc(OCCN4CCC(C(C)(C)O)CC4)cc32)CC1 [Example 79]
- IC50 [1]: 1000 to 5000 nM

Compound: CCCNS(=O)(=O)c1cccc(C(=O)/N=c2\[nH]c3cnc(OCCN4CCCCC4)cc3n2C2CCC(C(N)=O)CC2)c1 (stereo not drawn) [Example 244]
- IC50 ([1]; 2 nM enzyme, ATP 40 μM (Km apparent), 90 minutes, mean of three replicates): 50 to 100 nM

Compound: CC(=O)[C@H]1CC[C@@H](n2/c(=N/C(=O)c3cccc(F)c3)[nH]c3ccc(CO)cc32)CC1 [Example 70]
- IC50 [1]: 1000 to 5000 nM

Compound: CC(C)NC(=O)[C@H]1CC[C@@H](N2c3cc(O)ccc3NC2NC(=O)c2ccc(F)cc2)CC1 (stereo partly drawn) [Example 154]
- IC50 [1]: < 50 nM

Compound: tanezumab
- adverse event: headache (NGF; among patients): 9%
- adverse event: paresthesia (NGF; among patients): 7%
- adverse event: upper respiratory infection (NGF; among patients): 7%
- rate of adverse events (NGF; 55% in placebo group): 68%

Compound: CNC(=O)[C@]1(O)CC[C@H](n2/c(=N/C(=O)c3ccc(F)cc3)[nH]c3cnc(OCCN4CCCCC4)cc32)CC1 [Example 83]
- IC50 [1]: 100 to 1000 nM

Compound: CNC(=O)[C@]1(O)CC[C@@H](n2/c(=N/C(=O)c3ccc(F)cc3)[nH]c3cnc(OCCN4CCCCC4)cc32)CC1 [Example 82]
- IC50 [1]: 1000 to 5000 nM

Compound: O=C(/N=c1\[nH]c2cnc(OCCN3CCCCC3)cc2n1[C@H]1CC[C@@H](C(=O)N2CCNCC2)CC1)c1ccc(F)cc1 [Example 124]
- IC50 [1]: 100 to 1000 nM

Compound: CC(C)NC(=O)[C@H]1CC[C@@H](n2/c(=N/C(=O)c3ccc(F)cc3)[nH]c3ccc(CN4CCN(C(N)=O)CC4)cc32)CC1 [Example 177]
- IC50 [1]: < 50 nM

Compound: C=CCNS(=O)(=O)c1cccc(C(=O)/N=c2\[nH]c3cnc(OCCN4CCC(C(C)(C)O)CC4)cc3n2[C@H]2CC[C@H](C(=O)NC(C)C)CC2)c1 [Example 131]
- IC50 [1]: 100 to 1000 nM

Compound: CC(C)NC(=O)[C@H]1CC[C@@H](n2/c(=N/C(=O)c3ccc(F)c(C#N)c3)[nH]c3ccc(CN4CCC(C(C)(C)O)CC4)cc32)CC1 [Example 146]
- IC50 [1]: < 50 nM

More lines, now with the values ahead:

- IC50 [1]: < 50 nM
Compound: CC(C)N(C)C(=O)[C@H]1CC[C@@H](n2/c(=N/C(=O)c3ccc(F)cc3)[nH]c3cnc(CN4CCCCC4)cc32)CC1 [Example 46]

- IC50 [1]: 50 to 100 nM
Compound: CC(=O)N[C@H]1CC[C@H](n2/c(=N/C(=O)c3cccc(F)c3)[nH]c3ccc(CN4CCC(C(C)(C)O)CC4)cc32)CC1 [Example 229]

- IC50 [1]: < 50 nM
Compound: CC(C)NC(=O)[C@H]1CC[C@@H](n2/c(=N/C(=O)c3cccc(F)c3)[nH]c3cnc(OCCN4CCC(C(C)(C)O)CC4)cc32)CC1 [Example 130]

- IC50 [1]: < 50 nM
Compound: COC(=O)[C@H]1CC[C@@H](n2/c(=N/C(=O)c3ccc(F)cc3)[nH]c3cnc(CN4CCOCC4)cc32)CC1 [Example 85]

- IC50 (TRKC): 1 to 100 nM
- IC50 (RET(Y791F)): 1 to 100 nM
- IC50 (RET(M918T)): 1 to 100 nM
- IC50 (TRKA): < 1 nM
- IC50 (RET(G691S)): 1 to 100 nM
- IC50 (RET(S 891A)): 1 to 100 nM
- IC50 (TRKB): 1 to 100 nM
- IC50 (FLT4): > 1000 nM
- IC50 (RET): 1 to 100 nM
- IC50 (FLT1): > 1000 nM
- IC50 (KDR): > 1000 nM
- IC50 (FAK): 1 to 100 nM
- IC50 (EGFR(T790M)): > 1000 nM
Compound: CC(C)NC(=O)[C@H]1CC[C@@H](n2/c(=N/C(=O)c3ccc(F)cc3)[nH]c3ccc(CN4CCC(C(C)(C)O)CC4)cc32)CC1 [I-a]

- IC50 [1]: 50 to 100 nM
Compound: CC(C)C(=O)N[C@H]1CC[C@@H](n2/c(=N/C(=O)c3ccc(F)cc3)[nH]c3cnc(CN4CCC(C(C)(C)O)CC4)cc32)CC1 [Example 227]
